Results as given in patent US12091425B2 (AMGEN INC., priority 2016, dated 2024).

Target: T1, Mcl-1/Bim interaction, recombinant human Mcl-1 (171-327) (Homo sapiens, UniProt Q07820)
T1 construct: made in house
Assay: Cell free Mcl-1: Bim Affinity Assay (Mcl-1 HTRF)
Format: binding
Details: TR-FRET, 0.1 nM Mcl-1 (171-327), 0.05 nM biotin-Bim (51-76)
Outline: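 Displacement of biotinylated Bim 51-76 peptide is followed by TR-FRET. Incubation runs overnight. Duplicate points are fitted with a four-parameter sigmoid to yield IC50.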

T1 sequence (Q07820 171-327): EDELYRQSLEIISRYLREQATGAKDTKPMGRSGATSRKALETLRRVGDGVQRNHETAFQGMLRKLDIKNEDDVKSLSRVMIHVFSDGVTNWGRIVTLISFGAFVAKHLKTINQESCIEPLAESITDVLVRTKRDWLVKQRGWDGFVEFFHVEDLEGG

First: O=C1NS(=O)(=O)[C@@H](CO)CC/C=C\C[C@@H]2CC[C@H]2CN2C[C@@]3(CCCc4cc(Cl)ccc43)COc3ccc1cc32 (single isomer, unassigned) [Example 451]
Second: CC[C@H]1CCCOC[C@@H]2CC[C@H]2CN2C[C@@]3(CCCc4cc(Cl)ccc43)COc3ccc(cc32)C(=O)NS1(=O)=O (single isomer, unassigned) [Example 369]
The IC50 of the first is 2.9-fold higher: 11.5 nM for the first, 3.98 nM for the second.

Going from `CO[C@@H]1CCCCS(=O)(=O)NC(=O)c2ccc3c(c2)N(C[C@@H]2CC[C@H]21)C[C@@]1(CCCc2cc(Cl)ccc21)CO3` [Example 226] to `CC[C@@H]1CCCC[C@H](OCC(=O)O)[C@@H]2CC[C@H]2CN2C[C@@]3(CCCc4cc(Cl)ccc43)COc3ccc(cc32)C(=O)NS1(=O)=O` [Example 994, (((1S,3′R,6′R,7′S,12′R)-6-chloro-12′-ethyl-13′,13′-dioxido-15′-oxo-3,4-dihydro-2H-spiro[naphthalene-1,22′-[20]oxa[13]thia[1,14]diazatetracyclo[14.7.2.0^3,6.0^19,24]pentacosa [16,18,24]trien]-7′-yl)oxy)acetic Acid], the IC50 falls from 25.6 nM to 0.221 nM (120-fold).

Compared with `O=C1NS(=O)(=O)[C@@H](CCOC(F)(F)F)CC/C=C/[C@H](O)[C@@H]2CC[C@H]2CN2C[C@@]3(CCCc4cc(Cl)ccc43)COc3ccc1cc32` (single isomer, unassigned) [Example 1013], `COC[C@H]1CC/C=C/[C@H](O)[C@@H]2CC[C@H]2CN2C[C@@]3(CCCc4cc(Cl)ccc43)COc3ccc(cc32)C(=O)NS1(=O)=O` [Example 435, (1S,3′R,6′R,7′S,8′E,12′R)-6-chloro-7′-hydroxy-12′-(methoxymethyl)-3,4-dihydro-2H,15′H-spiro[naphthalene-1,22′-[20]oxa[13]thia[1,14]diazatetracyclo[14.7.2.0^3,6.0^19,24]pentacosa [8,16,18,24]tetraen]-15′-one 13′,13′-dioxide] is 7.1-fold lower in IC50: 18.1 nM for the first, 2.56 nM for the second.

`CC[C@@H]1CC/C=C/[C@H](OCC(=O)NC(C)C)[C@@H]2CC[C@H]2CN2C[C@@]3(CCCc4cc(Cl)ccc43)COc3ccc(cc32)C(=O)NS1(=O)=O` [Example 422, 2-(((1S,3′R,6′R,7′S,8′E,12′R)-6-chloro-12′-ethyl-13′,13′-dioxido-15′-oxo-3,4-dihydro-2H-spiro[naphthalene-1,22′-[20]oxa[13]thia[1,14]diazatetracyclo[14.7.2.0^3,6.0^19,24]pentacosa [8,16,18,24]tetraen]-7′-yl)oxy)-N-(1-methylethyl)acetamide] and `CC[C@@H]1CC/C=C/[C@H](OCC(=O)NC)[C@@H]2CC[C@H]2CN2C[C@@]3(CCCc4cc(Cl)ccc43)COc3ccc(cc32)C(=O)NS1(=O)=O` [Example 974, 2-(((1S,3′R,6′R,7′S,8′E,12′R)-6-chloro-12′-ethyl-13′,13′-dioxido-15′-oxo-3,4-dihydro-2H-spiro[naphthalene-1,22′-[20]oxa[13]thia[1,14]diazatetracyclo[14.7.2.0^3,6.0^19,24]pentacosa [8,16,18,24]tetraen]-7′-yl)oxy)-N-methylacetamide] are within 1.5-fold of each other in IC50: 0.865 nM for the first, 0.716 nM for the second.

`CC[C@@H]1CC/C=C/[C@H](OCC(=O)Nc2ccncc2)[C@@H]2CC[C@H]2CN2C[C@@]3(CCCc4cc(Cl)ccc43)COc3ccc(cc32)C(=O)NS1(=O)=O` [Example 1000, 2-(((1S,3′R,6′R,7′S,8′E,12′R)-6-chloro-12′-ethyl-13′,13′-dioxido-15′-oxo-3,4-dihydro-2H-spiro[naphthalene-1,22′-[20]oxa[13]thia[1,14]diazatetracyclo[14.7.2.0^3,6.0^19,24]pentacosa [8,16,18,24]tetraen]-7′-yl)oxy)-N-4-pyridinylacetamide] and `CC[C@@H]1CC/C=C/[C@H](OCC#N)[C@@H]2CC[C@H]2CN2C[C@@]3(CCCc4cc(Cl)ccc43)COc3ccc(cc32)C(=O)NS1(=O)=O` [Example 982, (((1S,3′R,6′R,7′S,8′E,12′R)-6-chloro-12′-ethyl-13′,13′-dioxido-15′-oxo-3,4-dihydro-2H-spiro[naphthalene-1,22′-[20]oxa[13]thia[1,14]diazatetracyclo[14.7.2.0^3,6.0^19,24]pentacosa [8,16,18,24]tetraen]-7′-yl)oxy)acetonitrile] are the same in IC50: 3.14 nM for the first, 3.14 nM for the second.

Going from `O=C1NS(=O)(=O)[C@H]2C[C@H](CC[C@H](O)[C@@H]3CC[C@H]3CN3C[C@@]4(CCCc5cc(Cl)ccc54)COc4ccc1cc43)C2` [Example 103, (1S,3′R,6′R,7′S,10′R,12′R)-6-chloro-7′-hydroxy-3,4-dihydro-2H,15′H-spiro[naphthalene-1,22′-[20]oxa[13]thia[1,14]diazapentacyclo[14.7.2.1^10,120^3,6.0^19,24]hexacosa[16,18,24]trien]-15′-one 13′,13′-dioxide] to `CC[C@@H]1CCCOC[C@@H]2CC[C@H]2CN2C[C@@]3(CCCc4cc(Cl)ccc43)COc3ccc(cc32)C(=O)NS1(=O)=O` (single isomer, unassigned) [Example 368], the IC50 rises from 1.43 nM to 3.74 nM (2.6-fold).

`COCCO[C@H]1/C=C/CC[C@@H](C)S(=O)(=O)NC(=O)c2ccc3c(c2)N(C[C@@H]2CC[C@H]21)C[C@@]1(CCCc2cc(Cl)ccc21)CO3` [Example 405, (1S,3′R,6′R,7′S,8′E,12′R)-6-chloro-7′-(2-methoxyethoxy)-12′-methyl-3,4-dihydro-2H,15′H-spiro[naphthalene-1,22′-[20]oxa[13]thia[1,14]diazatetracyclo[14.7.2.0^3,6.0^19,24]pentacosa [8,16,18,24]tetraen]-15′-one 13′,13′-dioxide] and `CO[C@H]1/C=C/CCNS(=O)(=O)NC(=O)c2ccc3c(c2)N(C[C@@H]2CC[C@H]21)C[C@@]1(CCCc2cc(Cl)ccc21)CO3` (single isomer, unassigned) [Example 46] are within 1.5-fold of each other in IC50: 0.543 nM for the first, 0.367 nM for the second.

Same assay, conditions: cell free Mcl-1:Bim TR-FRET, recombinant human Mcl-1 (171-327)

Compared with `COC1C=CCCC(C(C)(C)O)S(=O)(=O)NC(=O)c2ccc3c(c2)N(CC2CCC21)CC1(CCCc2cc(Cl)ccc21)CO3` (single isomer, unassigned) [Example 682], `CC(C)(O)[C@@H]1CC/C=C/[C@H](O)[C@@H]2CC[C@H]2CN2C[C@@]3(CCCc4cc(Cl)ccc43)COc3ccc(cc32)C(=O)NS1(=O)=O` (single isomer, unassigned) [Example 696] is 5.8-fold lower in IC50: 1.78 nM for the first, 0.305 nM for the second.

`CCC1CCCC(O)C2CCC2CN2CC3(CCCc4cc(Cl)ccc43)COc3ccc(cc32)C(=O)NS1(=O)=O` (single isomer, unassigned) [Example 768] and `CC[C@@H]1CCCCC[C@H](O)[C@@H]2CC[C@H]2CN2C[C@@]3(CCCc4cc(Cl)ccc43)COc3ccc(cc32)C(=O)NS1(=O)=O` [Example 554, (1S,3′R,6′R,7′S,13′R)-6-chloro-13′-ethyl-7′-hydroxy-3,4-dihydro-2H,16′H-spiro[naphthalene-1,23′-[21]oxa[14]thia[1,15]diazatetracyclo[15.7.2.0^3,6.0^20,25]hexacosa[17,19,25]trien]-16′-one 14′,14′-dioxide] are within 1.5-fold of each other in IC50: 2.24 nM for the first, 1.83 nM for the second.

`O=C1NS(=O)(=O)CCOCC[C@H](O)[C@@H]2CC[C@H]2CN2C[C@@]3(CCCc4cc(Cl)ccc43)COc3ccc1cc32` [Example 779, (3′R,6′R,7S,22S)-6′-chloro-7-hydroxy-3′,4′-dihydro-2′H,15H-spiro[10,20-dioxa-13-thia-1,14-diazatetracyclo[14.7.2.0^3,6.0^19,24]pentacosa-16,18,24-triene-22, 1′-naphthalen]-15-one-13, 13-dioxide or (3′R,6′R,7R,22S)-6′-chloro-7-hydroxy-3′,4′-dihydro-2′H,15H-spiro[10,20-dioxa-13-thia-1,14-diazatetracyclo[14.7.2.0^3,6.0^19,24]pentacosa-16,18,24-triene-22, 1′-naphthalen]-15-one-13, 13-dioxide] and `O=C1NS(=O)(=O)CCC[C@@H](O)CC[C@@H]2CC[C@H]2CN2C[C@@]3(CCCc4cc(Cl)ccc43)COc3ccc1cc32` (single isomer, unassigned) [Example 503, (1S,3′R,6′S,9′S)-6-chloro-9′-hydroxy-3,4-dihydro-2H,15′H-spiro[naphthalene-1,22′-[20]oxa[13]thia[1,14]diazatetracyclo[14.7.2.0^3,6.0^19,24]pentacosa [16,18,24]trien]-15′-one 13′,13′-dioxide or (1S,3′R,6′S,9′R)-6-chloro-9′-hydroxy-3,4-dihydro-2H,15′H-spiro[naphthalene-1,22′-[20]oxa[13]thia[1,14]diazatetracyclo[14.7.2.0^3,6.0^19,24]pentacosa [16,18,24]trien]-15′-one 13′,13′-dioxide] are within 1.5-fold of each other in IC50: 5.55 nM for the first, 3.96 nM for the second.

First: CC1(C)C/C=C/[C@H](O)[C@@H]2CC[C@H]2CN2C[C@@]3(CCCc4cc(Cl)ccc43)COc3ccc(cc32)C(=O)NS1(=O)=O [Example 769, (1S,3′R,6′R,7′S,8′E)-6-chloro-7′-hydroxy-11′,11′-dimethyl-3,4-dihydro-2H,14′H-spiro[naphthalene-1,21′-[19]oxa[12]thia[1,13]diazatetracyclo[13.7.2.0^3,6.0^18,23]tetracosa[8,15,17,23]tetraen]-14′-one 12′,12′-dioxide]
Second: O=C1NS(=O)(=O)CC/C=C/[C@@H]2CC[C@H]2CN2C[C@@]3(CCCc4cc(Cl)ccc43)COc3ccc1cc32 [Example 825, (1S,3′R,6′S, 7′E)-6-chloro-3,4-dihydro-2H,13′H-spiro[naphthalene-1,20′-[18]oxa[11]thia[1,12]diazatetracyclo[12.7.2.0^3,6.0^17,22]tricosa[7,14,16,22]tetraen]-13′-one 11′,11′-dioxide]
The IC50 of the first is 27-fold lower: 0.971 nM for the first, 26.4 nM for the second.

`CC(C)[C@@H]1CCCC[C@H](O)[C@@H]2CC[C@H]2CN2C[C@@]3(CCCc4cc(Cl)ccc43)COc3ccc(cc32)C(=O)NS1(=O)=O` (single isomer, unassigned) [Example 752] and `O=C1NS(=O)(=O)C/C=C\CCC[C@@H]2CC[C@H]2CN2C[C@@]3(CCCc4cc(Cl)ccc43)COc3ccc1cc32` (single isomer, unassigned) [Example 497] are within 1.5-fold of each other in IC50: 4.39 nM for the first, 4 nM for the second.
